Results reported in patent US7115593B2 (priority 2000, dated 2006).

Tested on: Phytophthora infestans
Experiment: whole plant or invertebrate
Assay type: in vivo
Conditions: tomato, protective, evaluation 3 days after inoculation; for pest or weed control at 10 g/ha / pest or weed control at 20 g/ha / pest or weed control at 0.1 g/ha / pest or weed control at 1 g/ha: Phytophthora infestans, in Solanum lycopersicum, 72 h; for pest or weed control at 10 g/ha: read-out: Efficacy in %, single active compound, application rate 10 g/ha; for pest or weed control at 20 g/ha: read-out: Efficacy in %, single active compound, application rate 20 g/ha; for pest or weed control at 0.1 g/ha: read-out: Efficacy in %, single active compound, application rate 0.1 g/ha; for pest or weed control at 1 g/ha: read-out: Efficacy in %, single active compound, application rate 1 g/ha; for Efficacy in %: single active compound

## CC(C)(C)C(O)C(Oc1ccc(-c2ccccc2)cc1)n1cncn1 (stereo not shown) [bitertanol (IIc), 1-(4-phenyl-phenoxy)-3,3-dimethyl-1-(1,2,4-triazol-1-yl)-butan-2-ol]
  pest or weed control at 10 g/ha: 4%

## CCC1(C(=O)NC(C)c2ccc(Cl)cc2)C(C)C1(Cl)Cl (stereo not shown) [carpropamid (V), N-[1-(4-chloro-phenyl)-ethyl]-2,2-dichloro-1-ethyl-3-methyl-cyclopropane-carboxamide]
  pest or weed control at 10 g/ha: 0%

## N#Cc1c(Cl)c(Cl)c(Cl)c(C#N)c1Cl [chlorothalonil (XXIX), chlorothalonil]
  pest or weed control at 20 g/ha: 12%

## CC(C)OC(=O)NC(C(=O)NC(C)c1nc2ccc(F)cc2s1)C(C)C (stereo not shown) [compound of the formula (I), isopropyl 1-({[1-(6-fluoro-1,3-benzothiazol-2-yl)ethyl]-amino}carbonyl)-2-methylpropylcarbamate]
  pest or weed control at 0.1 g/ha: 47%
  pest or weed control at 1 g/ha: 47%

## CO/C=C(/C(=O)OC)c1ccccc1Oc1cc(Oc2ccccc2C#N)ncn1 [compound of the formula (XII) (11), azoxystrobin]
  pest or weed control at 1 g/ha: 55%

## CO/N=C(/C(=O)OC)c1ccccc1CO/N=C(\C)c1cccc(C(F)(F)F)c1 [compound of the formula (XIII) (12), trifloxystrobin]
  pest or weed control at 1 g/ha: 0%

## CO/N=C(/C1=NOCCO1)c1ccccc1Oc1ncnc(Oc2ccccc2Cl)c1F [compound of the formula (XIV) (13)]
  pest or weed control at 1 g/ha: 8%

## OC(Cc1ccccc1Cl)(Cn1nc[nH]c1=S)C1(Cl)CC1 (stereo not shown) [compound of the formula (XXI) (20)]
  pest or weed control at 10 g/ha: 2%

## Cc1noc(C)c1S(=O)(=O)n1c(Cl)nc2cc3c(cc21)OC(F)(F)O3 [compound of the formula (XXVII), 1-(3,5-dimethyl-isoxazol-4-sulphonyl)-2-chloro-6,6-difluoro-[1,3]-dioxolo-[4,5f]-benzimidazole]
  pest or weed control at 0.1 g/ha: 30%

## [Cl-].[Cu+2].[Cu+2].[OH-].[OH-].[OH-] [compound of the formula (XXXXVIa) (40), copper oxychloride]
Application rate 50 g/ha
  Efficacy in %: 0%

## CN(C)S(=O)(=O)N(SC(F)(Cl)Cl)c1ccccc1 [dichlofluanid (IVa), dichlofluanid]
Application rate 20 g/ha
  Efficacy in %: 5%

## CC1(C(=O)Nc2ccc(O)c(Cl)c2Cl)CCCCC1 [fenhexamid (VIII), fenhexamid]
  pest or weed control at 10 g/ha: 13%

## O=[N+]([O-])c1cc(C(F)(F)F)c(Cl)c([N+](=O)[O-])c1Nc1ncc(C(F)(F)F)cc1Cl [fluazinam (XXXI), fluazinam]
  pest or weed control at 10 g/ha: 56%

## O=C1c2ccccc2C(=O)N1SC(Cl)(Cl)Cl [folpet (XIX), folpet]
  pest or weed control at 20 g/ha: 0%

## O=[N+]([O-])/N=C1\NCCN1Cc1ccc(Cl)nc1 [imidacloprid (XXII), 1-[(6-chloro-3-pyridinyl)-methyl]-N-nitro-2-imidazolidinimine]
  pest or weed control at 10 g/ha: 0%

## CCCN(CC)CC1COC2(CCC(C(C)(C)C)CC2)O1 (stereo not shown) [spiroxamine (XI), 8-t-butyl-2-(N-ethyl-N-n-propyl-amino)-methyl-1,4-dioxaspiro[5,4]-decane]
Application rate 10 g/ha
  Efficacy in %: 0%

## CC(C)(C)C(O)(CCc1ccc(Cl)cc1)Cn1cncn1 (stereo not shown) [tebuconazole (III), tebuconazole]
  pest or weed control at 10 g/ha: 5%

## Cc1ccc(N(SC(F)(Cl)Cl)S(=O)(=O)N(C)C)cc1 [tolylfluanid (IVb), tolylfluanid]
Application rate 20 g/ha
  Efficacy in %: 21%

## CC(C)(C)C(O)C(Oc1ccc(Cl)cc1)n1cncn1 (stereo not shown) [triadimenol (IIb), 1-(4-chloro-phenoxy)-3,3-dimethyl-1-(1,2,4-triazol-1-yl)-butan-2-ol]
  pest or weed control at 10 g/ha: 0%

## mancozeb [mancozeb (VIIc)]
Application rate 20 g/ha
  Efficacy in %: 28%

## zinc propylene-1,2-bis-(dithiocarbamidate) [propineb (VI)]
Application rate 20 g/ha
  Efficacy in %: 19%
